The numbers were not newly measured in PMC4132888 (Biopolymers, 2014), which cites them from elsewhere.

Where no end group is shown, it is not given here. [ ]: non-standard residue; d: D form.

One data set deals with MOR. Particulars: read-out: Binding MOR; ref [33].
For a further data set, the target named is DOR. The settings on record: read-out: Binding DOR; ref [33].
For data set [1], the target named is T1, rat δ opioid receptor (DOR) (Rattus norvegicus, UniProt P33533). The settings on record: previously reported; ref [13].
T1 sequence (P33533 whole entry): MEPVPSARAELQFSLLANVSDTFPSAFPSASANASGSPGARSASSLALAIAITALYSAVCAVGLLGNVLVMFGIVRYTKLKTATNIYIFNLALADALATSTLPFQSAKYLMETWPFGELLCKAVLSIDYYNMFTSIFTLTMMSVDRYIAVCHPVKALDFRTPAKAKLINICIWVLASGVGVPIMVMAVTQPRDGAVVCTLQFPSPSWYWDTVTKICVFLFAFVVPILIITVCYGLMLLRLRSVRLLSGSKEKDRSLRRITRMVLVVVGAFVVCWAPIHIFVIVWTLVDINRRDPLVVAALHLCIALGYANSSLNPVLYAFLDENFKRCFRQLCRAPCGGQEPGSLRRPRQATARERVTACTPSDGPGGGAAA
The target in data set [2] is T2, rat μ opioid receptor (MOR) (Rattus norvegicus, UniProt P33535). Particulars: previously reported; ref [13].
T2 sequence (P33535 whole entry): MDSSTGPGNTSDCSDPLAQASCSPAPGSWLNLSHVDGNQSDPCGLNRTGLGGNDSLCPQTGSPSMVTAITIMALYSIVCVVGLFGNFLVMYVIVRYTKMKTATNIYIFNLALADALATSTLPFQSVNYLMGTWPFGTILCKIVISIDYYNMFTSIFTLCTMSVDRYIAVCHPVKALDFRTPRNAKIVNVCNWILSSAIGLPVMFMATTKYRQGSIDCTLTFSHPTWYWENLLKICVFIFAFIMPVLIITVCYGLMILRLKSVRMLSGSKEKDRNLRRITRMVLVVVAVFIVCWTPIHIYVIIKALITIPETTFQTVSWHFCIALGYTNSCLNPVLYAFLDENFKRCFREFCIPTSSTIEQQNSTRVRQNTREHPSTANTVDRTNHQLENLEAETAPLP
Data set [3] concerns the target T2, rat μ opioid receptor (MOR). The settings on record: previously reported; ref [13]. The source holds these as a separate data set.
In data set [4] the target is T1, rat δ opioid receptor (DOR). Particulars: previously reported; ref [13]. The source holds these as a separate data set.

For Y[dT]GFLS-NH2 [DTLES], the Ki on MOR is 1.4 ± 0.08 nM; on KOR (read-out: Binding KOR, ref [33]) it was 34 ± 2.2 nM; on DOR, 4.1 ± 0.41 nM.

Turning to “Dmt-c(S-Et-S)[DCys-Aic-DPen]OH [KSK-103]”, the “Binding for DOR (in words)” value in data set [1] is given as “low nanomolar binding”. The “Agonist activity at MOR (in words)” value in data set [2] is recorded as “moderate agonist activity”. Moreover, in data set [3], the “Binding for MOR (in words)” value was “low nanomolar binding”. In addition, in data set [4], the “Stimulation of DOR (in words)” value is recorded as “no stimulation”.

As for “Tyr-DThr-Gly-Phe-Leu-Ser-(O-β-D-lactose)-NH2 [MMP-2200]”, the “KOR affinity (in words)” value with KOR (ref Polt and co-workers) is reported as “high KOR affinity”.
